Where two headings read alike, the source gives them in different places.
Assays:
[1] = test system: Rhodococcus rhodochrous NCIMB 40757 nitrilase; assay: Nitrilase kinetics of whole cells (acrylonitrile to ammonium acrylate); assay type: biochemical; details: for Km: 30° C.
Method: A novel nitrilase is characterised by having Km for acrylonitrile below 500 μM. Throughout this specification Km refers to Km measured at pH 7.0. […] In particular we use the conditions of Example 6 below. […] Microbial., 135 3153-3164 and those described for lactate dehydrogenase by Wagner (1990) Tibtech., 8, 263-270 will yield nitrilase having Km values up to 60 or 100, or perhaps 300 μM, and Km values down to. 9.4 and even 3.8 μM.
A novel nitrilase of the invention is characterised by having Ki for ammonium acrylate of at least 100 mM, preferably at least 150 or 200, more preferably at least 250 mM. Throughout this specification Ki refers to Ki measured at pH 7.0. […] Preferably measurement is under the conditions given in Example 7 below. […] It is envisaged that standard techniques and selection procedures, eg mutagenesis, will yield nitrilase having Ki for ammonium acrylate up to 300 mM or even 800 mM or greater.
(§1) The cells of the Rhodococcus rhodochrous strain grown as described in Example 1 were suspended in solutions of 50 mM pH 7 sodium phosphate buffer at 30° C. containing the concentrations of acrylonitrile shown in the table below. Samples were taken over time to determine the acrylonitrile, acrylamide and ammonium acrylate concentrations in the cell suspensions.
as §1, with “1.2 M ammonium acrylate” for “50 mM pH 7 sodium phosphate buffer”

[2] = biological target: T1, Rhodococcus rhodochrous K22 nitrilase (Rhodococcus rhodochrous, UniProt Q02068); details: read-out: Km (acrylonitrile); reported in J. Bacteriol. 172, 9, 4807-4815; cited from earlier work
T1 sequence (Q02068 1-383): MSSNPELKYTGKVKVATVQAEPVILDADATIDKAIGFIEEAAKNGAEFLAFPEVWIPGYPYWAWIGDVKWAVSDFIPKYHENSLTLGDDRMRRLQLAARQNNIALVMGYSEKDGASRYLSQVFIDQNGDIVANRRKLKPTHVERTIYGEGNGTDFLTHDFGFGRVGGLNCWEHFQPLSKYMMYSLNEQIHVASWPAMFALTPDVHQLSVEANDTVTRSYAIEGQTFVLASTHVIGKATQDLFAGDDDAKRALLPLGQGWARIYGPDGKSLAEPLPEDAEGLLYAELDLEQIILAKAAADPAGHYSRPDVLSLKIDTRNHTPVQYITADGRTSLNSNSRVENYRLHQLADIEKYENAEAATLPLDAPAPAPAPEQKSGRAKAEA

[3] = test system: Fusarium oxysporum f.sp. melonis nitrilase; details: read-out: Km (acrylonitrile), cited from earlier work

SMILES | Km ([1]; whole cell form, 50 mM pH 7 sodium phosphate buffer, read-out: Km for acrylonitrile) [µM] | Km ([1]; whole cells in 1.2 M ammonium acrylate, read-out: apparent Km (acrylonitrile) in 1.2 M ammonium acrylate) [µM] | Km [2] [µM] | Km ([3]; Goldlust and Bohak (1989)) [µM] | Km ([3]; reported in Biotech. Appl. Biochem., 1989, 11, 581-601) [µM] | ratio (Ki for ammonium acrylate)/(Km for acrylonitrile) ([1]; initial experiments)
C=CC#N [acrylonitrile] | 30.6 | 145 | 1140 | 17000 | 17000 | –
C=CC(=O)O [ammonium acrylate] | – | – | – | – | – | greater than 10000

Source: US5998180A, “Nitrilase from Rhodoccus rhodochrous for converting acrylonitrile directly to acrylic acid” (priority 1995, dated 1999)
